Test results reported in patent US20100004235A1, “Heterocyclic Substituted, Anellated Pyrazole Derivative and its uses” (BAYER HEALTHCARE AG, priority 2006, published 2010).

tested on: rabbit aorta rings; assay: Vasorelaxant effect in vitro (rabbit aorta rings, phenylephrine-induced contraction); conditions: Oryctolagus cuniculus; concentration reducing the height of the phenylephrine-induced contraction of rabbit aorta rings by 50%; 0.1% DMSO
Description: Rabbits are stunned by a blow to the neck and exsanguinated. The aorta is removed, freed from adhering tissue and divided into rings of a width of 1.5 mm. The rings are placed individually under an initial tension in 5 ml organ baths with Krebs-Henseleit solution which is at 37° C., is gassed with carbogen and has the following composition (in each case mM): NaCl: 119; KCl: 4.8; CaCl2×2H2O: 1; MgSO4×7H2O: 1.4; KH2PO4: 1.2; NaHCO3: 25; glucose: 10. The force of contraction is detected with Statham UC2 cells, amplified and digitized via A/D converters (DAS-1802 HC, Keithley Instruments, Munich) and recorded in parallel on chart recorders. Contractions are induced by cumulatively adding increasing concentrations of phenylephrine to the bath. After several control cycles, the substance to be investigated is added in each further run in increasing dosage, and the height of the contraction achieved is compared with the height of the contraction reached in the last preceding one. The concentration necessary to reduce the height of the control value by 50% is calculated from this (IC50 value). The standard application volume is 5 μl, the proportion of DMSO in the bath solution corresponds to 0.1%.

Row | SMILES | IC50 [nM]
1 | O=c1[nH]c(-c2nn(Cc3ccccc3F)c3ncccc23)no1 [Example 1, 3-[1-(2-Fluorobenzyl)-1H-pyrazolo[3,4-b]pyridin-3-yl]-1,2,4-oxadiazol-5(4H)-one] | 2100
2 | O=c1[nH]nc(-c2nn(Cc3ccccc3F)c3ncccc23)o1 [Example 3, 5-[1-(2-Fluorobenzyl)-1H-pyrazolo[3,4-b]pyridin-3-yl]-1,3,4-oxadiazol-2(3H)-one] | 610
3 | O=c1[nH]c(-c2nn(Cc3ccccc3F)c3ncccc23)ns1 [Example 2, 3-[1-(2-Fluorobenzyl)-1H-pyrazolo[3,4-b]pyridin-3-yl]-1,2,4-thiadiazol-5(4H)-one] | 450

The remaining lines, values ahead:

Row | IC50 [nM] | SMILES
4 | 2100 | CC(=O)OCCn1nc(-c2nn(Cc3ccccc3F)c3ncccc23)[nH]c1=O [Example 19, 2-{3-[1-(2-Fluorobenzyl)-1H-pyrazolo[3,4-b]pyridin-3-yl]-5-oxo-4,5-dihydro-1H-1,2,4-triazol-1-yl}ethyl acetate]
5 | 610 | O=c1[nH]c(-c2nn(Cc3ccccc3F)c3ncccc23)nn1CC(F)(F)F [Example 18, 5-[1-(2-Fluorobenzyl)-1H-pyrazolo[3,4-b]pyridin-3-yl]-2-(2,2,2-trifluoroethyl)-2,4-dihydro-3H-1,2,4-triazol-3-one]
6 | 1100 | Fc1ccccc1Cn1nc(-c2noc(=S)[nH]2)c2cccnc21 [Example 7, 3-[1-(2-Fluorobenzyl)-1H-pyrazolo[3,4-b]pyridin-3-yl]-1,2,4-oxadiazole-5(4H)-thione]

tested on: vessel; assay: not given; conditions: literature report; cited from earlier work

Row | SMILES | vessel-relaxing effect
7 | Fc1ccccc1Cn1nc(-c2nnn[nH]2)c2cccnc21 [1-(2-fluorobenzyl)-3-(1H-tetrazol-5-yl)-1H-pyrazolo[3,4-b]pyridine] | moderate
